Numbered stars: 1 amine (or outer) side, 2 acyl side, 3 side chain; on linkers, the order of the positions; unused ones are H or OH. Square brackets hold non-standard residues; d marks the D form. Side chains are listed from the residue outwards. Peptide text beside a SMILES is read from it. * marks the point of attachment. C18 diacid = O=C(O)CCCCCCCCCCCCCCCCC(=O)*; γGlu = O=C(O)[C@H](CCC(=O)[*:2])N[*:1]; AEEA = NCCOCCOCC(=O)O; Aib = CC(C)(N)C(=O)O
Tested on: DIO mice
Assay: In vivo test in diet-induced obese (DIO) mice: body weight and blood glucose
Design: species or system c57bl/6J mice
Settings: for Percent BW of baseline at week 5 (mean ± SD): s.c. once daily 5 weeks, co-agonists 5 then 10 nmol/kg, liraglutide 100 nmol/kg
Text: The purpose of this experiment was to investigate effect of the glucagon-GLP-1R co-agonists from Example 8 and Example 12 on body weight and blood glucose in vivo in DIO mice. Liraglutide (a human GLP-1 analogue marketed by Novo Nordisk NS under the brand name VictozaTM) was included for comparison. Male […]/6J mice obtained from Jackson Lab (USA) were fed a high fat diet (Research Diets D12451, 45% kcal fat) to obtain approximately 50% overweight compared to age-matched lean control mice. The DIO mice are characterized by normoglycemia, insulin resistance and obesity. […] The co-agonists, i.e. the glucagon derivatives, were dissolved in 50 mM Na2HPO4, 145 mM NaCl og 0.05% Tween 80, pH 7.4, while liraglutide was diluted from 6 mg/ml VictozaTM pens in DPBS buffer (Invitrogen) containing 0.5% rat serum albumin. Vehicle treated animals received 50 mM Na2HPO4, 145 mM NaCl og 0.05% Tween 80, pH 7.4. Compounds and vehicle were dosed (1 ml/kg) for 5 weeks s.c. once daily just prior to lights out. For the first half of the study co-agonists were administered at a dose of 5 nmol/kg and for the second half of the study co-agonists were administered at a dose of 10 nmol/kg. For comparison, liraglutide at a dose of 100 nmol/kg, likewise dosed s.c. once daily, was included. Body weight was monitored before dosing, daily during the dosing period. Non-fasted blood glucose was measured on the day of initiation of dosing and weekly during the dosing period, prior to dosing. Blood for measurement of blood glucose was taken from the tail tip capillary and blood glucose was measured using a glucose analyzer (Biosen 5040) based on the glucose oxidase method. The body weight reduction/body weight at the end of the 5 week treatment period and area under the blood glucose curve during the five week treatment period are given in the tables below.

Compound	Percent BW of baseline at week 5 (mean ± SD)	lowering of body weight in vivo (5 weeks s.c. once daily)
CC(C)C[C@H](NC(=O)[C@H](CC(C)C)NC(=O)[C@H](Cc1c[nH]c2ccccc12)NC(=O)[C@H](CCC(N)=O)NC(=O)[C@@H](NC(=O)[C@H](Cc1ccccc1)NC(=O)[C@H](CCC(=O)O)NC(=O)[C@H](CCC(N)=O)NC(=O)[C@H](C)NC(=O)[C@H](C)NC(=O)[C@H](CCCCN)NC(=O)[C@H](CO)NC(=O)[C@H](CC(=O)O)NC(=O)[C@H](CC(C)C)NC(=O)[C@H](Cc1ccc(O)cc1)NC(=O)[C@H](CCCCN)NC(=O)[C@H](CO)NC(=O)[C@H](CC(C)C)NC(=O)[C@H](CC(=O)O)NC(=O)[C@H](CO)NC(=O)[C@@H](NC(=O)[C@H](Cc1ccccc1)NC(=O)[C@@H](NC(=O)CNC(=O)[C@H](CCC(N)=O)NC(=O)C(C)(C)NC(=O)[C@@H](N)Cc1c[nH]cn1)[C@@H](C)O)[C@@H](C)O)C(C)C)C(=O)N[C@@H](CC(N)=O)C(=O)N[C@@H](CCCCNC(=O)CC[C@H](NC(=O)CC[C@H](NC(=O)COCCOCCNC(=O)COCCOCCNC(=O)CC[C@H](NC(=O)CCCCCCCCCCCCCCCCC(=O)O)C(=O)O)C(=O)O)C(=O)O)C(N)=O [Example 8, N^ε29-[(4S)-4-carboxy-4-[[(4S)-4-carboxy-4-[[2-[2-[2-[[2-[2-[2-[[(4S)-4-carboxy-4-(17-carboxyheptadecanoylamino)butanoyl]amino]ethoxy]ethoxy]acetyl]amino]ethoxy]ethoxy]acetyl]amino]butanoyl]amino]butanoyl]-[Aib2,Leu10,Lys17,Ala18,Glu21,Leu27,Lys29]-Glucagon amide] (H-H[Aib]QGTFTSDLSKYLDSKAAQEFVQWLLNK([γGlu-γGlu-AEEA-AEEA-γGlu-C18 diacid])-NH2; N-terminus assumed)	88% ± 8%	–
CC(C)C[C@H](NC(=O)[C@H](CC(C)C)NC(=O)[C@H](Cc1c[nH]c2ccccc12)NC(=O)[C@H](CCC(N)=O)NC(=O)[C@@H](NC(=O)[C@H](Cc1ccccc1)NC(=O)[C@H](CCC(=O)O)NC(=O)[C@H](CCCNC(=N)N)NC(=O)[C@H](C)NC(=O)[C@H](CCCNC(=N)N)NC(=O)[C@H](CCCNC(=N)N)NC(=O)[C@H](CO)NC(=O)[C@H](CC(=O)O)NC(=O)[C@H](CC(C)C)NC(=O)[C@H](Cc1ccc(O)cc1)NC(=O)[C@H](CCCCN)NC(=O)[C@H](CO)NC(=O)[C@H](CC(C)C)NC(=O)[C@H](CC(=O)O)NC(=O)[C@H](CO)NC(=O)[C@@H](NC(=O)[C@H](Cc1ccccc1)NC(=O)[C@@H](NC(=O)CNC(=O)[C@H](CCC(N)=O)NC(=O)C(C)(C)NC(=O)[C@@H](N)Cc1c[nH]cn1)[C@@H](C)O)[C@@H](C)O)C(C)C)C(=O)N[C@@H](CC(N)=O)C(=O)N[C@@H](CCCCNC(=O)CC[C@H](NC(=O)CC[C@H](NC(=O)COCCOCCNC(=O)COCCOCCNC(=O)CC[C@H](NC(=O)CCCCCCCCCCCCCCCCC(=O)O)C(=O)O)C(=O)O)C(=O)O)C(N)=O [Example 12, N^ε29-[(4S)-4-carboxy-4-[[(4S)-4-carboxy-4-[[2-[2-[2-[[2-[2-[2-[[(4S)-4-carboxy-4-(17-carboxyheptadecanoylamino)butanoyl]amino]ethoxy]ethoxy]acetyl]amino]ethoxy]ethoxy]acetyl]amino]butanoyl]amino]butanoyl]-[Aib2,Leu10,Arg20,Glu21,Leu27,Lys29]-Glucagon amide] (H-H[Aib]QGTFTSDLSKYLDSRRAREFVQWLLNK([γGlu-γGlu-AEEA-AEEA-γGlu-C18 diacid])-NH2)	75% ± 8%	tends to be superior to liraglutide alone

Source: US9474790B2, “Stable, protracted GLP-1/glucagon receptor co-agonists for medical use” (Novo Nordisk A/S, priority 2013, dated 2016)
